# Values of other authors, collected in patent publication US20030114497A1 (priority 2001, published 2003).
# Assays:
# calcium channel = conditions: see WO 95/05822
# [1] = system: smooth muscle cell migration; conditions: see WO 95/25722
structure (smiles),measurement,setting,value
"CCOC(=O)C1=C(COCCN)NC(C)=C(C(=O)OC)[C@H]1c1ccccc1Cl (single isomer, unassigned) [R(+) isomer]",calcium channel blocking activity,calcium channel,little or no calcium channel blocking activity
same,inhibition of smooth muscle cell migration,[1],potent inhibitor
